This is an account of results in PubChem BioAssay (NCI).

Structures are written as SMILES.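 A five-concentration, 48-hour dose response in 96-well plates underlies each endpoint, interpolated linearly between surrounding concentrations. Definition used: TGI = concentration required for complete inhibition of growth.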

Among the test systems are A498 renal; RXF 393 renal; SNB-75 CNS; SK-MEL-2 melanoma; UACC-62 melanoma; NCI-H226 lung; HOP-62 NSCLC; LOX IMVI melanoma; SN12C renal; SNB-19 CNS; MDA-N; HT29 colon; HCT-116 colon; SK-OV-3 ovarian; HS 578T breast; SW-620 colon; KM12 colon; EKVX NSCLC; SR leukemia.
Holding throughout (assay): NCI anticancer screen, dose series, 48 h

As for `CC(C)C(/C=C/c1ccc(Cl)cc1)=N\NC(=S)NN`, the TGI with A498 renal was above 100 µM; with RXF 393 renal, 96.6 µM; in the test on SNB-75 CNS it was 91.8 µM; with SK-MEL-2 melanoma, 44.5 µM; in the test with UACC-62 melanoma, 30.5 µM; in the test on NCI-H226 lung, 93 µM. The TGI in the test with HOP-62 NSCLC was above 100 µM; in the test on LOX IMVI melanoma, 33.7 µM; in the test with SN12C renal, above 100 µM; in the test with SNB-19 CNS, above 100 µM; in the test with MDA-N, above 100 µM; in the test on HT29 colon it was above 100 µM. Besides, the TGI with HCT-116 colon is 11.4 µM; with SK-OV-3 ovarian, above 100 µM; with HS 578T breast it was 72.3 µM; in the test with SW-620 colon, above 100 µM; in the test with KM12 colon, above 100 µM.

As for `CC[C@@H]1C[C@@H](O)[C@@H]2[C@H](O)[C@H](O)CN2C1`, the TGI in the test with A498 renal, with SNB-75 CNS, in the test with SK-MEL-2 melanoma, in the test with UACC-62 melanoma, with EKVX NSCLC and in the test with NCI-H226 lung was above 100 µM throughout. In addition, the TGI in the test with LOX IMVI melanoma, in the test with SN12C renal, in the test with SNB-19 CNS, with MDA-N, with HT29 colon and in the test with HCT-116 colon was above 100 µM in each case. The TGI in the test on SK-OV-3 ovarian, in the test with HS 578T breast, in the test with SW-620 colon and with KM12 colon was above 100 µM throughout.

With `Cn1c(=O)c2c(nc3sc4ncccc4c(=O)n32)n(C)c1=O`, the TGI in the test on A498 renal, with RXF 393 renal, in the test on SNB-75 CNS, in the test on SK-MEL-2 melanoma, in the test on UACC-62 melanoma and in the test with EKVX NSCLC was above 100 µM each time. Also, the TGI in the test with NCI-H226 lung, with HOP-62 NSCLC, with LOX IMVI melanoma, in the test on SN12C renal, in the test on SNB-19 CNS and in the test on MDA-N was above 100 µM each time. Moreover, the TGI in the test on HT29 colon, in the test with HCT-116 colon, with SK-OV-3 ovarian, in the test on HS 578T breast, in the test with SW-620 colon and in the test on KM12 colon was above 100 µM throughout.

On to `Cc1c(C)c2ccc(O)cc2[nH]c1=O`, for which the TGI in the test on A498 renal, in the test on RXF 393 renal, with SNB-75 CNS, in the test on SK-MEL-2 melanoma, in the test on UACC-62 melanoma and in the test with EKVX NSCLC was above 100 µM throughout. Besides, the TGI in the test with NCI-H226 lung, in the test on HOP-62 NSCLC, with LOX IMVI melanoma, in the test on SR leukemia, with SN12C renal and in the test with SNB-19 CNS was above 100 µM throughout. Also, the TGI in the test on MDA-N, with HT29 colon, with HCT-116 colon, with SW-620 colon and in the test with KM12 colon was above 100 µM throughout.

On to `CC1(CC(=O)OC(C#C[Si](C)(C)C)Cc2ccccc2)OCCO1` (configuration not stated), for which the TGI in the test with A498 renal, in the test on RXF 393 renal, in the test with SNB-75 CNS, with SK-MEL-2 melanoma, in the test with UACC-62 melanoma and in the test on EKVX NSCLC was above 100 µM each time. For the same compound, the TGI in the test on NCI-H226 lung, in the test with HOP-62 NSCLC, in the test on LOX IMVI melanoma, with SN12C renal, in the test on SNB-19 CNS and in the test with MDA-N was above 100 µM each time. Further, the TGI in the test with HT29 colon, in the test with HCT-116 colon, in the test with SK-OV-3 ovarian, with HS 578T breast, with SW-620 colon and in the test on KM12 colon was above 100 µM in each case.

Regarding `C/C(=C\[C@H]1C[C@@H]([C@@H]2CC[C@]34C[C@]23C=C[C@@H]2[C@@]3(C)CC=C5C[C@@H](c6ccccc6)OC[C@]5(C)[C@@H]3C[C@@H](O)[C@]24C)C(=O)O1)CO`, the TGI was 5.8 µM in the test with A498 renal; above 100 µM in the test on RXF 393 renal; 92 µM with SNB-75 CNS; above 100 µM in the test with SK-MEL-2 melanoma; above 71.2 µM in the test with UACC-62 melanoma; above 52 µM in the test with EKVX NSCLC. In addition, the TGI in the test with NCI-H226 lung was above 94.2 µM; with HOP-62 NSCLC it was above 100 µM; in the test with LOX IMVI melanoma, above 100 µM; in the test on SN12C renal it was 5.57 µM; in the test with SNB-19 CNS it was above 86.7 µM; in the test on MDA-N, 13.2 µM. Besides, the TGI is 7.85 µM with HT29 colon; above 100 µM in the test on HCT-116 colon; above 61.8 µM with SK-OV-3 ovarian; above 72.2 µM with HS 578T breast; above 100 µM in the test on SW-620 colon; 15.3 µM in the test with KM12 colon.

For `C[C@]12CCC(=O)C=C1CC[C@@H]1[C@@H]2CC[C@]2(C)C(=O)/C(=C\c3ccccc3)C[C@@H]12`, the TGI was 42.4 µM with A498 renal; above 73.7 µM with RXF 393 renal; above 100 µM in the test with SNB-75 CNS; 46.1 µM with SK-MEL-2 melanoma; above 66.2 µM with UACC-62 melanoma; above 100 µM with EKVX NSCLC. Moreover, the TGI with NCI-H226 lung is 33.5 µM; with HOP-62 NSCLC, above 100 µM; with LOX IMVI melanoma, above 51.5 µM; with SR leukemia, above 49.2 µM; in the test on SN12C renal, 31.9 µM; in the test with SNB-19 CNS, above 100 µM. Also, the TGI in the test on MDA-N is 48 µM; in the test on HT29 colon, above 100 µM; in the test with HCT-116 colon, above 48.7 µM; in the test on SK-OV-3 ovarian it was above 100 µM; in the test on SW-620 colon, above 56.9 µM; in the test on KM12 colon, above 64.3 µM.
